From ChEMBL document CHEMBL4118098, “Discovery of DS28120313 as a potent orally active hepcidin production inhibitor: Design and optimization of novel 4,6-disubstituted indazole derivatives” (Bioorg Med Chem Lett, 2017)

Test system: HepG2
Assay: Inhibition of human recombinant BMP6-stimulated hepcidin mRNA expression in human HepG2 cells after 6 hrs by qRT-PCR analysis
Format: functional, cell-based
Conditions: HepG2, 6 h

| Compound | IC50 [nM] |
| --- | --- |
| COC(=O)Nc1cc(-c2c(-c3ccccn3)n[nH]c2C)cc2[nH]ncc12 | 320 |
| CCc1n[nH]c(C)c1-c1cc(NC(=O)OC)c2cn[nH]c2c1 | 180 |
| COC(=O)Nc1cc(-c2c(C(=O)O)n[nH]c2C)cc2[nH]ncc12 | > 10000 |
| Cc1[nH]nc(C2CC2)c1-c1cc(NC(=O)C2CC2)c2cn[nH]c2c1 | 1000 |
| Cc1[nH]nc(C2CC2)c1-c1ccc2c(-c3ccc[nH]3)n[nH]c2c1 | 3100 |
| CC(=O)Nc1n[nH]c2cc(-c3c(C4CC4)n[nH]c3C)ccc12 | 410 |
| CNC(=O)c1n[nH]c(C)c1-c1cc(NC(=O)OC)c2cn[nH]c2c1 | 2000 |
| COC(=O)Nc1cc(-c2c(-c3ccccc3)n[nH]c2C)cc2[nH]ncc12 | 1100 |
| Cc1[nH]nc(C2CC2)c1-c1ccc2c(-c3ccc(N4CCNCC4)nc3)n[nH]c2c1 | 170 |
| CNC(=O)c1cc(-c2c(C3CC3)n[nH]c2C)cc2[nH]ncc12 | 2200 |
| CNC(=O)Nc1cc(-c2c(C3CC3)n[nH]c2C)cc2[nH]ncc12 | 340 |
| Cc1[nH]nc(C2CC2)c1-c1ccc2c(-c3ccncc3)n[nH]c2c1 | 2600 |
| Cc1[nH]nc(C2CC2)c1-c1ccc2c(-c3cccnc3)n[nH]c2c1 | 2300 |
| Cc1[nH]nc(C2CC2)c1-c1cc(NC(=O)c2ccc(N3CCN(C)CC3)cc2)c2cn[nH]c2c1 | 1900 |
| Cc1[nH]nc(C2CC2)c1-c1cc(N)c2cn[nH]c2c1 | 2700 |
| Cc1[nH]nc(C2CC2)c1-c1cc(NS(C)(=O)=O)c2cn[nH]c2c1 | 1200 |

More lines, in order of falling IC50, values ahead:

| IC50 [nM] | Compound |
| --- | --- |
| 4100 | Cc1[nH]nc(C2CC2)c1-c1ccc2cn[nH]c2c1 |
| 3900 | COCc1n[nH]c(C)c1-c1cc(NC(=O)OC)c2cn[nH]c2c1 |
| 3000 | COC(=O)N(C)c1cc(-c2c(C3CC3)n[nH]c2C)cc2[nH]ncc12 |
| 660 | CCOC(=O)Nc1cc(-c2c(C3CC3)n[nH]c2C)cc2[nH]ncc12 |
| 450 | CCC(=O)Nc1cc(-c2c(C3CC3)n[nH]c2C)cc2[nH]ncc12 |
| 190 | CC(=O)Nc1cc(-c2c(C3CC3)n[nH]c2C)cc2[nH]ncc12 |
| 190 | COC(=O)Nc1cc(-c2c(C(C)C)n[nH]c2C)cc2[nH]ncc12 |
| 150 | COC(=O)Nc1cc(-c2c(C)n[nH]c2C)cc2[nH]ncc12 |
| 130 | COC(=O)Nc1cc(-c2c(C(=O)OC)n[nH]c2C)cc2[nH]ncc12 |
